Data reported in US10272086B2 (CHANG GUNG MEMORIAL HOSPITAL, LINKOU, priority 2013, dated 2019).

Experiments:
[1] = molecular target: T1, glucocorticoid receptor (GR) (Homo sapiens, UniProt P04150); assay: Glucocorticoid receptor transcriptional activity reporter assay in PC-3 cells (control study); assay type: cell-based
T1 construct: host or cells: PC-3
T1 sequence (P04150 1-777): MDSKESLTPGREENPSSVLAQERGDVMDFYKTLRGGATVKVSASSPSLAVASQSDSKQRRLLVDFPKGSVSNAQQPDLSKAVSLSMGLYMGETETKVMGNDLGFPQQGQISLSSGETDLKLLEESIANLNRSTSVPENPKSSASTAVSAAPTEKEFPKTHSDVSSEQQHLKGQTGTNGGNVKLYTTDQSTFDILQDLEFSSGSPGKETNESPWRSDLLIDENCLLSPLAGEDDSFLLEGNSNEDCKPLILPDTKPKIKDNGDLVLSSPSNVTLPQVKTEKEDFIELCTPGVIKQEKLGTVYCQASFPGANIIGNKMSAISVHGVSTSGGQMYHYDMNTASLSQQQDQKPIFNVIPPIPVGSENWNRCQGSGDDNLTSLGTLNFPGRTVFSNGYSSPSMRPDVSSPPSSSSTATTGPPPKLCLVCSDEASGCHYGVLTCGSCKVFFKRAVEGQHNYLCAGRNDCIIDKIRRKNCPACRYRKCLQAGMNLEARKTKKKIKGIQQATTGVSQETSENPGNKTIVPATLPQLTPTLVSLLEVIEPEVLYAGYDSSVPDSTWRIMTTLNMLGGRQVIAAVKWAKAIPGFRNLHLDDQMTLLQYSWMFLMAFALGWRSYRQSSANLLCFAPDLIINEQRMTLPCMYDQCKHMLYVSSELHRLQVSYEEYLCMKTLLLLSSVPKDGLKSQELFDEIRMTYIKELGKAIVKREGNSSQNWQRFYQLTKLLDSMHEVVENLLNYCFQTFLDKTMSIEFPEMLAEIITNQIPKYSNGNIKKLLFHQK

[2] = Topical Minoxidil on forehead acne in a patient, 7-day course; assay type: in vivo, human
Experimental: An in vivo evaluation of topical Minoxidil on acne was carried out in a patient. […] In addition, there was less new […] formation on the left (treated) forehead compared to the right (untreated) forehead.

[3] = Topical 5% Minoxidil on an acne on a patient's face, two applications; assay type: in vivo, human
[4] = Double-blind clinical trial of topical Minoxidil versus placebo in patients with acne; assay type: in vivo, human
Experimental: A double-blind clinical trial is conducted, in which topical Minoxidil and placebo are administered to patients with acne.

[5] = test system: PSA (prostate specific antigen) protein expression; assay: Western blot of AR regulated PSA protein expression in LNCaP cells; assay type: cell-based, human; details: 10^−3˜10^−5 M Minoxidil, 24 h
Experimental: The cells were prepared for electrophoresis on SDS/PAGE gel and then transferred onto nitrocellulose (Minipore, Billerica, USA). AR, PSA and beta-actin proteins were identified using anti-AR (N-20 from Santa Cruz Biotechnology, Santa Cruz, USA), anti-PSA (C-19 from Santa Cruz Biotechnology, Santa Cruz, USA), or […] (MAB1501 from Millipore, Billerica, USA) respectively. Images were shown using alkaline phosphatase substrate color kit (Bio-Rad, Hercules, USA).

GR transcriptional activity ([1]; highest concentration 100 μM): did affect GR transcriptional activity
GR transcriptional activity ([1]; lower concentrations 1-10 μM): did not
SMILES: Nc1cc(N2CCCCC2)nc(N)[n+]1[O-] [Minoxidil, 6-piperidin-1-ylpyrimidine-2,4-diamine 3-oxide]
New pimple formation, treated versus untreated forehead ([2]; 5% Minoxidil solution, topical, once a day for 7 days): less new pimple formation on the left (treated) forehead
Pimples on treated forehead ([2]; 5% Minoxidil solution, topical, once a day for 7 days, left forehead treated, right forehead control): disappearance of pimples on the left (treated) forehead
Healing time of acne ([2]; 5% topical Minoxidil, 7-day course): faster healing time
Erythema and swelling around the acne ([3]; 5% Minoxidil, topical, after two applications): significant reduction in erythema and swelling around the acne
Efficacy in treating acne ([3]; 5% topical Minoxidil, 48-hour period): effective in treating acne
Symptoms and signs of acne in comparison with the placebo group [4]: statistically significant reduction in the symptoms and signs of acne
AR regulated PSA protein expression [5]: effective in inhibiting AR regulated PSA protein expression in the presence of DHT, in a dose dependent manner
